Data: patent US12486234B2, “PAPD5 inhibitors and methods of use thereof” (Children's Medical Center Corporation, priority 2019, dated 2025)

Columns and labels:
[1] = target: T1, PAPD5 (Homo sapiens, UniProt Q8NDF8); test: RNA oligo-adenylation (oligo-extension) inhibition assay with recombinant PAPD5; assay type: biochemical; set-up: key: minimal activity (0); range from minimal activity (0) to that of compound 1 (+++); range from minimal activity (0) to that of compound 1 (+++); that of compound 1 (+++); details: qualitative measure of RNA oligo-extension inhibition, relative to compound 1
T1 construct: made in house
T1 sequence (Q8NDF8 68-698 isoform Q8NDF8-5 limits assumed): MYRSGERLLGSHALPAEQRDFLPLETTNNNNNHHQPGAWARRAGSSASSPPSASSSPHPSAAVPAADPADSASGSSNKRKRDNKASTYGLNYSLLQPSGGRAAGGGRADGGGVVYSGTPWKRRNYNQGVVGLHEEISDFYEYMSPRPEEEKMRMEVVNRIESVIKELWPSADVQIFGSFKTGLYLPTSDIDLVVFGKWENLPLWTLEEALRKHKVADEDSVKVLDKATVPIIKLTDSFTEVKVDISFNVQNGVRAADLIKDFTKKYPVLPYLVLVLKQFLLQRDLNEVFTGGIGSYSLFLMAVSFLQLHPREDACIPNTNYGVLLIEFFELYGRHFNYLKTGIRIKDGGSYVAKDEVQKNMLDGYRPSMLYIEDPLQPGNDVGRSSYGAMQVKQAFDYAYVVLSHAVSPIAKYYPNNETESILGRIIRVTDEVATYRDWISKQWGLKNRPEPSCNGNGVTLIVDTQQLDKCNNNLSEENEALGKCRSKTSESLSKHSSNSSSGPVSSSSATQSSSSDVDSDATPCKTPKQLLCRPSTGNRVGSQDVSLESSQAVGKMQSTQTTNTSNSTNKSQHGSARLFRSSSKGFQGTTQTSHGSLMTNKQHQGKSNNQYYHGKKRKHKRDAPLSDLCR
Method: An in vitro RNA polyadenylation assay using recombinant PAPD5, ATP and an oligonucleotide substrate utilized the following phenomenon: ATP utilization by PAPD5 reads out as a decreased luminescence signal produced by luciferase (KinaseGlo, Promega, Madison, WI).
(§1) Qualitative measure of RNA oligo-extension inhibition for the tested compounds, expressed as range from minimal activity (0) to that of compound 1 (+++), and results of a DSF binding assay (shown as shift in temperature at 100 μM of the compound) are shown in the Table 2 below.

[2] = target: T1, PAPD5; test: DSF binding assay (shift in temperature); details: shift in temperature at 100 μM of the compound
Method: as §1

Row | Compound | Inhibition of PAPD5 RNA oligo adenylation [1] | ΔTm at 100 µM [2] [°C] | ΔTm 100 μM [2]
1 | NS(=O)(=O)c1cnc2ccc(Br)cc2c1Nc1ccccc1C(=O)O [Compound 61A, 2-[(6-bromo-3-sulfamoyl-4-quinolyl)amino]benzoic acid] | +++ | 11.1 | –
2 | O=C(O)c1ccccc1Nc1c(C(=O)N2CCNCC2)cnc2ccc(OC(F)(F)F)cc12 [Compound 14A, 2-[[3-(piperazine-1-carbonyl)-6-(trifluoromethoxy)-4-quinolyl]amino]benzoic acid] | ++ | 1.7 | –
3 | CCOC(=O)c1cnc2ccc(C(=O)N3CCNCC3)cc2c1Nc1ccccc1C(=O)O [Compound 18A, 2-[[3-ethoxycarbonyl-6-(piperazine-1-carbonyl)-4-quinolyl]amino]benzoic acid] | 0 | -0.1 | –
4 | N#Cc1cnc2ccc(-c3cccc4ncccc34)cc2c1Nc1ccccc1C(=O)O [Compound 54A, 2-[[3-cyano-6-(5-quinolyl)-4-quinolyl]amino]benzoic acid] | +++ | – | fluorescent
5 | CCOC(=O)c1cnc2ccc(OC(F)(F)F)cc2c1Nc1ccccc1C(=O)O [Compound 32A, 2-[[3-ethoxycarbonyl-6-(trifluoromethoxy)-4-quinolyl]amino]benzoic acid] | +++ | 7.9 | –
6 | O=C(O)c1ccccc1Nc1c(-c2ncco2)cnc2ccc(OC(F)(F)F)cc12 [Compound 17A, 2-[[3-oxazol-2-yl-6-(trifluoromethoxy)-4-quinolyl]amino]benzoic acid] | +++ | 8.4 | –
7 | CCOC(=O)c1cnc2ccc(OC(F)(F)F)cc2c1Nc1ccccc1S(=O)(=O)NCC(F)(F)F [Compound 34A, ethyl 4-[2-(2,2,2-trifluoroethylsulfamoyl)anilino]-6-(trifluoromethoxy)quinoline-3-carboxylate] | 0 | 0.3 | –
8 | CCOC(=O)c1cnc2ccc(OC(F)(F)F)cc2c1Nc1scnc1C(=O)O [Compound 5A, 5-((3-(ethoxycarbonyl)-6-(trifluoromethoxy)quinolin-4-yl)amino)thiazole-4-carboxylic acid] | 0 | 2.3 | –
